Laboratory results reported in BindingDB's records for doi:10.1016/j.bmc.2006.07.028 (University of Florence, 2006).

Legend:
[1] = molecular target: T1, Macrophage metalloelastase (Homo sapiens, UniProt P39900); assay: Dissociation Constants (KD) Measurements; settings: pH 7.2; 25 °C
Protocol: (§1) The NMR experiments were performed to determine the binding affinity (KD) for the MMP-12 catalytic domain. The alteration of the chemical shifts induced on 2D 1H-15N HSQC upon the titration with the test compound was analyzed. The fit of the experimental data as a function of ligand concentration provided dissociation constant.

[2] = molecular target: T1, Macrophage metalloelastase; assay: Dissociation Constants (KD) Measurements and Enzyme Inhibition Assay (IC50); settings: pH 7; 25 °C
Protocol: as §1, with “constant. The inhibition potency (IC50) was measured by fluorescent enzymatic assays. The compounds were evaluated for their ability to inhibit the hydrolysis of fluorescence-quenched peptide substrate. […] Fitting of hydrolysis rate as a function of inhibitor concentration provided IC50.” for “constant.”

Matrilysin = molecular target: T2, Matrilysin (Homo sapiens, UniProt P09237); assay: Inhibition Potency Measurements; settings: pH 7; 25 °C
T2 sequence (P09237 whole entry): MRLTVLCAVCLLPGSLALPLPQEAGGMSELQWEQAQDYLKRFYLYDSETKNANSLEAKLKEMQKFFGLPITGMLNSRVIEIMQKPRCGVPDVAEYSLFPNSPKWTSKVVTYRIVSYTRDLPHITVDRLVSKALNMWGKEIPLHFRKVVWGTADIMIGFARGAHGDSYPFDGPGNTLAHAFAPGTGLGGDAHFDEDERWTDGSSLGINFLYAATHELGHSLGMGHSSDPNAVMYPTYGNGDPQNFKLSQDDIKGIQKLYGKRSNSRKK
Protocol: (§2) The inhibition potency (IC50) was measured by fluorescent enzymatic assays. The compounds were evaluated for their ability to inhibit the hydrolysis of fluorescence-quenched peptide substrate. […] Fitting of hydrolysis rate as a function of inhibitor concentration provided IC50.

Collagenase 3 = Collagenase 3 (Homo sapiens, UniProt P45452); assay: Inhibition Potency Measurements; settings: pH 7; 25 °C
Protocol: as §2

Interstitial collagenase = molecular target: T3, Interstitial collagenase (Homo sapiens, UniProt P03956); assay: Inhibition Potency Measurements; settings: pH 7; 25 °C
T3 sequence (P03956 whole entry): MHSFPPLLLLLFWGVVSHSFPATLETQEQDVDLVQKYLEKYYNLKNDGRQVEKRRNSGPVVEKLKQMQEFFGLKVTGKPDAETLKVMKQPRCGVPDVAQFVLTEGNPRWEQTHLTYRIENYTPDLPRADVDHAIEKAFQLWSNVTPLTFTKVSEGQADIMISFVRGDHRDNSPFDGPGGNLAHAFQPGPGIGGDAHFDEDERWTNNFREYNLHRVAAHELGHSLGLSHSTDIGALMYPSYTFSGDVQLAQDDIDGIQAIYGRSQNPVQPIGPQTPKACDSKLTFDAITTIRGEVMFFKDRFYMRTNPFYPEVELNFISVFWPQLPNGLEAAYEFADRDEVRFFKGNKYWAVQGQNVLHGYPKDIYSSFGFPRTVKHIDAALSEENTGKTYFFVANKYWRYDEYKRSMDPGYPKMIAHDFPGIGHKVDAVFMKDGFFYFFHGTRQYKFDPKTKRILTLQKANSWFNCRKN
Protocol: as §2

Stromelysin-2 = Stromelysin-2 (Homo sapiens, UniProt P09238); assay: Inhibition Potency Measurements; settings: pH 7; 25 °C
Sequence of Stromelysin-2 (P09238 whole entry): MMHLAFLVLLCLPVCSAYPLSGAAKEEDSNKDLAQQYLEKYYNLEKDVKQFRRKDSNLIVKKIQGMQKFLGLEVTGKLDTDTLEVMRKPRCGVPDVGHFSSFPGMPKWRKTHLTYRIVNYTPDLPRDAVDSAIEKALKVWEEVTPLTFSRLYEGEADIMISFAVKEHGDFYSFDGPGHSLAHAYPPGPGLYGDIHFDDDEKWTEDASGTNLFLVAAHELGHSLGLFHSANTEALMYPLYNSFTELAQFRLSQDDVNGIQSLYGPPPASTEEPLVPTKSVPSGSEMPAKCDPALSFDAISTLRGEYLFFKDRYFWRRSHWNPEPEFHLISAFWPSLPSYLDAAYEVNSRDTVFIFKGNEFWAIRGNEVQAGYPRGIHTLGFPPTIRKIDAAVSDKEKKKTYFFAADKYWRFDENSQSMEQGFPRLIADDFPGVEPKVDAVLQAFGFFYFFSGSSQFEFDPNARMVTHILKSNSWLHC
Protocol: as §2

Neutrophil collagenase = Neutrophil collagenase (Homo sapiens, UniProt P22894); assay: Inhibition Potency Measurements; settings: pH 7; 25 °C
Sequence of Neutrophil collagenase (P22894 whole entry): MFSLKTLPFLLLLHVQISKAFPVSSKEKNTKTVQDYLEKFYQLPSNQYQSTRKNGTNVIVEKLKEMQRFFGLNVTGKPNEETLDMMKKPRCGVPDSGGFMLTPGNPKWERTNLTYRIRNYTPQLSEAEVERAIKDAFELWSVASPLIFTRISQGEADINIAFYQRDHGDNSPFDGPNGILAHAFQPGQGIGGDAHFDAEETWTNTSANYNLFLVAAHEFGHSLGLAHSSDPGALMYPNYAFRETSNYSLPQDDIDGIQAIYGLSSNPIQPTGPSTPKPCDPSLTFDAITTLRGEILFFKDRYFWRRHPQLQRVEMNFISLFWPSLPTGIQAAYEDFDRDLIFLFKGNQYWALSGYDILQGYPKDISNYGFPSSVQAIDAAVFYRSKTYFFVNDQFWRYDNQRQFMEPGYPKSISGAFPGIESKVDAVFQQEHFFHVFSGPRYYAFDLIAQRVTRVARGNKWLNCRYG
Protocol: as §2

T1 sequence (P39900 whole entry, the tested form may be a part): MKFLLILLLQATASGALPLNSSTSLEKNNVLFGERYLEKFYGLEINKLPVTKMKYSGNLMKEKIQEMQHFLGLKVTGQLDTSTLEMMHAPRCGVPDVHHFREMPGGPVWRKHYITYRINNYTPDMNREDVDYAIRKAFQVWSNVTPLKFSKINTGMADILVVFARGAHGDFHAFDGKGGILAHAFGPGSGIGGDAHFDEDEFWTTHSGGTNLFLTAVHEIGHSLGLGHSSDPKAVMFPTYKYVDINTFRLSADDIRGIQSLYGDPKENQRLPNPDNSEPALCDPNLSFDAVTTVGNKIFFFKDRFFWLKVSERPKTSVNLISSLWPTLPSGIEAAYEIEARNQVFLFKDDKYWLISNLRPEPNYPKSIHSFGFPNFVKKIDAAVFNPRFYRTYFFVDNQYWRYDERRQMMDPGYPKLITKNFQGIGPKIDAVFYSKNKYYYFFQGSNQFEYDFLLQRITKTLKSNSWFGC

Row | SMILES | Kd [1] [mM] | IC50 [2] [µM] | Kd [2] [µM] | other results
1 | O=C(O)[C@@H]1O[C@H]2CN(Cc3ccccc3)C(=O)[C@@H]1O2 [(1R,5S,7R)-3-benzyl-2-oxo-6,8-dioxa-3-azabicyclo[3.2.1]octane-7-carboxylic acid] | > 10 |  |  | 
2 | O=C(O)[C@@H]1O[C@H]2CN(Cc3ccccc3)C[C@@H]1O2 [(1S,5S,7R)-3-benzyl-6,8-dioxa-3-azabicyclo[3.2.1]octane-7-carboxylic acid] | > 10 |  |  | 
3 | O=C(O)[C@@H]1O[C@H]2CN(Cc3ccc(-c4ccccc4)cc3)C[C@@H]1O2 [(1S,5S,7R)-3-[(4-phenylphenyl)methyl]-6,8-dioxa-3-azabicyclo[3.2.1]octane-7-carboxylic acid] |  | 835 | > 1000 | 
4 | O=C(NCc1ccc(-c2ccccc2)cc1)[C@@H]1O[C@H]2CN(C(=O)NO)C[C@@H]1O2 [(1S,5S,7R)-3-N-hydroxy-7-N-[(4-phenylphenyl)methyl]-6,8-dioxa-3-azabicyclo[3.2.1]octane-3,7-dicarboxamide] |  |  |  | IC50 (Matrilysin): 1.51 mM; IC50 (Collagenase 3): 778 µM; IC50 (Interstitial collagenase): 1.18 mM; IC50 (Stromelysin-2): 865 µM; IC50 (Neutrophil collagenase): 513 µM
5 | O=C(O)[C@@H]1O[C@H]2CN(Cc3ccc(-c4ccccc4)cc3)C(=O)[C@@H]1O2 [(1R,5S,7R)-2-oxo-3-[(4-phenylphenyl)methyl]-6,8-dioxa-3-azabicyclo[3.2.1]octane-7-carboxylic acid] |  | 954 | > 1000 | 

The next lines start with results.

Row | Kd [1] [mM] | IC50 [2] [µM] | Kd [2] [µM] | SMILES | other results
6 | 3.4 |  |  | CCOC(=O)C1CCN(C(=O)NO)CC1 [ethyl 1-(hydroxycarbamoyl)piperidine-4-carboxylate] | 
7 | > 10 |  |  | O=C(NO)[C@@H]1O[C@H]2CN(Cc3ccccc3)C(=O)[C@@H]1O2 [(1R,5S,7R)-3-benzyl-N-hydroxy-2-oxo-6,8-dioxa-3-azabicyclo[3.2.1]octane-7-carboxamide] | 
8 |  | 425 | > 500 | O=C(NO)[C@@H]1O[C@H]2CN(Cc3ccc(-c4ccccc4)cc3)C(=O)[C@@H]1O2 [(1R,5S,7R)-N-hydroxy-2-oxo-3-[(4-phenylphenyl)methyl]-6,8-dioxa-3-azabicyclo[3.2.1]octane-7-carboxamide] | 
9 |  | 399 | > 500 | O=C(NO)[C@@H]1O[C@H]2CN(Cc3ccc(-c4ccccc4)cc3)C[C@@H]1O2 [(1S,5S,7R)-N-hydroxy-3-[(4-phenylphenyl)methyl]-6,8-dioxa-3-azabicyclo[3.2.1]octane-7-carboxamide] | 
